These are literature values, as cited in PMC12655172, “Borylated 5-Membered Ring Iminosugars: Synthesis and Biological Evaluation for Glycosidase Inhibition and Anticancer Properties for Application in Boron Neutron Capture Therapy (BNCT)—Part 2” (Pharmaceuticals, 2025).

Usually IC50 stands for the point on the concentration scale where inhibition reaches its midpoint.

For one data set, the target named is β-glucosidase (almond). Also on record: method as in PMID 33228403. The following applies: cited from earlier work.
The next data set addresses amyloglucosidase. The following applies: read-out: IC50 amyloglucosidase; cited from earlier work.
Data set [1] has as its system β-D-galactosidase (E. coli). The following applies: cited from earlier work.
The subject of data set [2] is α-D-galactosidase (coffee bean). The note with it: cited from earlier work.
For data set [3], the system named is T1, α-D-mannosidase (Jack bean).
T1 construct: purchased Sigma-Aldrich; host or cells: Jack bean
The note with it: cited from earlier work.

For another data set, the system named is α-L-fucosidase. Details: method as in PMID 2706004. The following applies: cited from earlier work.
The target of data set [4] is α-glucosidase (endoplasmatic reticulum I). Details: method as in PMID 19294724. The note with it: cited from earlier work.
Data set [5] has as its target α-glucosidase (endoplasmatic reticulum II). Details: method as in PMID 19294724. The following applies: cited from earlier work.
In a further data set the target is α-D-glucosidase. Details: method as in PMID 31557624. The following applies: cited from earlier work.
The test system of data set [6] is α-D-mannosidase (lysosomal acidic). Also on record: method as in PMID 8457203. The following applies: cited from earlier work.
Data set [7] has as its system α-D-mannosidase (neutral). Details: method as in PMID 8457203. The note with it: cited from earlier work.
For data set [8], the system named is α-D-mannosidase (Golgi II). Also on record: method as in PMID 8457203. The following applies: cited from earlier work.
Data set [9] concerns the target α-D-mannosidase (fruit fly lysosomal acidic). Details: method as in PMID 29323461. The note with it: cited from earlier work.
For data set [10], the target named is α-D-mannosidase (fruit fly Golgi II). Also on record: method as in PMID 29323461. The note with it: cited from earlier work.
For data set [11], the system named is β-D-glucosidase (almond). Details: method as in PMID 41011173. The note with it: cited from earlier work.
The target in data set [12] is T2, β-D-glucosidase (bovine liver) (Bos taurus, UniProt F1MNT6).
T2 sequence (F1MNT6 1-469): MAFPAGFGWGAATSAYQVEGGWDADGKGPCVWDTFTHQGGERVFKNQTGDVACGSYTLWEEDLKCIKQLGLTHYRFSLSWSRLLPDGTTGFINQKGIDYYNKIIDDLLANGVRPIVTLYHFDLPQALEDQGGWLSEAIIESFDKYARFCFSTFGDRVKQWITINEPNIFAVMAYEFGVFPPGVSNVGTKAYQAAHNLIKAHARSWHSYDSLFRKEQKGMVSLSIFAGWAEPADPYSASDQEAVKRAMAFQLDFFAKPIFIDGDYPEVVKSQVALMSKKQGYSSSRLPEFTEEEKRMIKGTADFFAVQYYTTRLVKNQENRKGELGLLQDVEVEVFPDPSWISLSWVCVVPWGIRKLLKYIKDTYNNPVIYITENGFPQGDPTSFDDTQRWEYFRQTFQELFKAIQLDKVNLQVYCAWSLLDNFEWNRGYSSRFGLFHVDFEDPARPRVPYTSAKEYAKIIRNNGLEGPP
Also on record: method as in PMID 41011173. The note with it: cited from earlier work.

The subject of data set [13] is β-D-glucosidase (almond). Details: method as in PMID 41011173. The following applies: Table 3 type assay; cited from earlier work.

In the case of `OC[C@H]1NC[C@H](O)[C@@H](O)[C@@H]1O` [1-DNJ], the IC50 on β-glucosidase (almond) is […]; on amyloglucosidase, 2.1 µM.
For the compound `Cl.OC[C@@H](O)[C@H]1[C@H](O)[C@H](O)CN1Cc1ccccc1B(O)O` [N-(2-Methylphenylboronic acid)-1,4-dideoxy-1,4-imino-D-talitol.HCl], the “inhibition β-D-galactosidase (E. coli)” value in data set [1] is reported as “β-D-Galactosidase (E. coli) (44–55%)”. Moreover, the “inhibition α-D-galactosidase (coffee bean)” value in [2] is on record as below 5%. Moreover, the “inhibition α-D-mannosidase (Jack bean)” value in [3] is given as 10%.
Regarding `OC[C@@H](O)[C@@H]1[C@@H](O)[C@@H](O)CN1Cc1ccccc1` [N-Benzyl-1,4-dideoxy-1,4-imino-D-allitol], the “inhibition α-L-fucosidase” value in the data set on α-L-fucosidase is “α-L-Fucosidase (76%)”.
Regarding `Cl.OC[C@@H](O)[C@H]1[C@H](O)[C@H](O)CN1Cc1ccccc1` [N-Benzyl-1,4-dideoxy-1,4-imino-D-talitol.HCl], the “inhibition β-D-galactosidase (E. coli)” value in data set [1] is reported as “poorly inhibited”. In data set [2], the “inhibition α-D-galactosidase (coffee bean)” value is listed as “poorly inhibited”. Besides, the “inhibition α-D-mannosidase (Jack bean)” value in data set [3] is reported as “poorly inhibited”.
Turning to `CCCCN1C[C@H](O)[C@@H](O)[C@H](O)[C@H]1CO` [N-Butyl-DNJ], the IC50 in [4] is 0.68 µM; in data set [5], 10.8 µM.
`OC[C@@H](O)[C@H]1[C@H](O)[C@@H](O)CN1Cc1ccccc1` [N-benzyl-1,4-dideoxy-1,4-imino-D-galactitol]: on α-D-glucosidase, the IC50 is 40.6 µM and the “inhibition α-D-glucosidase” value was 93.2%.
As for `Cl.OC[C@@H](O)[C@@H]1[C@H](O)[C@H](O)CN1Cc1ccccc1` [N-benzyl-1,4-dideoxy-1,4-imino-D-mannitol.HCl], the “inhibition α-D-mannosidase lysosomal acidic” value in data set [6] is listed as 34%. Besides, the “inhibition α-D-mannosidase neutral” value in data set [7] is 44%. Further, the “inhibition α-D-mannosidase Golgi II” value in [8] is 72%. In addition, the values for the IC50 in [9] and in data set [10] were 1500 µM and 690 µM, respectively.
Consider `OB(O)c1ccc(CN2C[C@@H](O)[C@H]3OC(O)[C@H](O)[C@H]32)cc1` (stereo partly drawn) [para 7, N-(4-methylphenylboronic acid)-3,6-dideoxy-3,6-imino-D-gulofuranose], for which the “inhibition % β-D-Glucosidase Almond” value in the data set on β-D-glucosidase (almond) [11] is listed as 43.6%. The “inhibition % β-D-Glucosidase Bovine Liver” value in [12] is 38.8%. For the same compound, the “Percentage inhibition β-D-Glucosidase Almond” value in the data set with β-D-glucosidase (almond) [13] is on record as 68.1%.
